In patent US6706663B2, “Herbicidal 3-heterocyclic substituted benzisothiazole and benzisoxazole compounds” (Wyeth, priority 2000, dated 2004):

Tests used:
[1] = test system: IPOHE (Ipomoea hederacea); assay: Postemergence herbicidal evaluation; type: in vivo, (L.) Jacq.; conditions: postemergence
Procedure, shortened: (§1)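 Visual 0–9 injury scores versus control plants, covering stand, vigour, malformation, size, chlorosis and general appearance, taken four to five weeks post-spray and averaged over replicate tests. Plants were sprayed at roughly two weeks old and held on greenhouse benches.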

[2] = test system: SAGPY (Sagittaria pygmaea); assay: Flooded paddy, preemergence weed control; type: in vivo, L.; conditions: rated 3-4 weeks after treatment, 0-9 rating scale
Procedure, shortened: (§2)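 In this preemergence paddy assay, weed seeds or organs are sown at up to 0.5 cm in silt loam and covered by 1.5–3 cm of water for the full test period. After treatment the pots are kept in a greenhouse, and herbicidal effect is rated 0-9 visually against a control.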

[3] = test system: TRZAWR (Wheat, Winter, cv Riband); assay: Preemergence herbicidal evaluation; type: in vivo, Triticum aestivum; conditions: rated 4-5 weeks after treatment
Procedure, shortened: (§3)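 Visual 0-9 rating versus untreated control, taken four to five weeks post-treatment, scoring stand, vigor, malformation, size, chlorosis and overall appearance. Compound applied as aqueous acetone spray to freshly seeded soil cups, then kept under standard greenhouse care.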

[4] = test system: CYPSE (Cyperus serotinus); assay: Flooded paddy, preemergence weed control; type: in vivo, Rottb.; conditions: rated 3-4 weeks after treatment, 0-9 rating scale
Procedure, shortened: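 Herbicidal effect was scored visually on a 0–9 scale against an untreated control 3–4 weeks after treatment. Compounds were applied preemergence as 50/50 v/v aqueous/acetone mixtures into flood water (1.5–3 cm deep over silt loam), at roughly 0.0080 to 0.1250 kg/ha active ingredient.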

[5] = test system: GLXMAW (Soybean, Williams); assay: Postemergence herbicidal evaluation; type: in vivo, Glycine max, (L.) Merr. cv Williams; conditions: postemergence
Procedure, shortened: as §1

[6] = test system: GLXMAW (Soybean, Williams); assay: Preemergence herbicidal evaluation; type: in vivo, Glycine max, (L.) Merr. cv Williams; conditions: rated 4-5 weeks after treatment
ORYSAT (Rice, Tebonnet) = assay: Preemergence herbicidal evaluation; type: in vivo, Oryza sativa, (L.) Tebonnet; conditions: rated 4-5 weeks after treatment
[7] = test system: CASOB (Cassia obtusifolia); assay: Postemergence herbicidal evaluation; type: in vivo, L.; conditions: postemergence
Procedure, shortened: as §1

[8] = test system: CHEAL (Chenopodium album); assay: Postemergence herbicidal evaluation; type: in vivo, L.; conditions: postemergence
Procedure, shortened: as §1

[9] = test system: AMBEL (Ambrosia artemisifolia); assay: Postemergence herbicidal evaluation; type: in vivo, L.; conditions: postemergence
Procedure, shortened: as §1

[10] = test system: ABUTH (Abutilon theophrasti); assay: Postemergence herbicidal evaluation; type: in vivo, Medic.; conditions: postemergence
Procedure, shortened: as §1

CYPIR (Cyperus iria) = assay: Flooded paddy, preemergence weed control; type: in vivo; conditions: rated 3-4 weeks after treatment, 0-9 rating scale
Procedure, shortened: as §2

ZEAMX (Corn, Field) [11] = assay: Preemergence herbicidal evaluation; type: in vivo, Zea mays, L.; conditions: rated 4-5 weeks after treatment
[12] = test system: ECHORC (Echinochloa oryzoides); assay: Flooded paddy, preemergence weed control; type: in vivo, Echinochloa oryzoides (Ard.) Fritsch.; conditions: rated 3-4 weeks after treatment, 0-9 rating scale
Procedure, shortened: as §2

[13] = test system: IPOHE (Ipomoea hederacea); assay: Preemergence herbicidal evaluation; type: in vivo, (L.) Jacq.; conditions: rated 4-5 weeks after treatment
GALAP (Galium aparine) = assay: Postemergence herbicidal evaluation; type: in vivo; conditions: postemergence
Procedure, shortened: as §1

[14] = test system: CASOB (Cassia obtusifolia); assay: Preemergence herbicidal evaluation; type: in vivo, L.; conditions: rated 4-5 weeks after treatment
Procedure, shortened: as §3

[15] = test system: CHEAL (Chenopodium album); assay: Preemergence herbicidal evaluation; type: in vivo, L.; conditions: rated 4-5 weeks after treatment
Procedure, shortened: as §3

[16] = test system: AMBEL (Ambrosia artemisifolia); assay: Preemergence herbicidal evaluation; type: in vivo, L.; conditions: rated 4-5 weeks after treatment
Procedure, shortened: as §3

ZEAMX (Corn, Field) [17] = assay: Postemergence herbicidal evaluation; type: in vivo, Zea mays, L.; conditions: postemergence
Procedure, shortened: as §1

[18] = test system: ECHCG (Echinochloa crus-galli); assay: Postemergence herbicidal evaluation; type: in vivo, (L.) Beau; conditions: postemergence
Procedure, shortened: as §1

C[C@@H]1C[C@H](C)OC(c2nsc3ccc(-n4c(=O)cc(C(F)(F)F)n(C)c4=O)cc23)O1 (stereo partly drawn) [Compound 51, 3-[3-[(4R,6S)-4,6-dimethyl-m-dioxan-2-yl]-1,2-benzisothiazol-5-yl]-1-methyl-6-(trifluoromethyl)uracil]
IPOHE herbicidal rating ([1]; rate 0.0320 kg/ha): 9.0 | IPOHE herbicidal rating ([1]; rate 0.0620 kg/ha): 9.0 | herbicidal rating, SAGPY ([2]; rate 0.0080 kg/ha): 0.0 | herbicidal rating, SAGPY ([2]; rate 0.0320 kg/ha): 7.0 | herbicidal rating, SAGPY ([2]; rate 0.1250 kg/ha): 9.0 | Preemergence herbicidal rating TRZAWR ([3]; Rate 0.0620 kg/ha): 9.0 | Preemergence herbicidal rating TRZAWR ([3]; Rate 0.1250 kg/ha): 9.0 | Preemergence herbicidal rating TRZAWR ([3]; Rate 0.2500 kg/ha): 9.0 | herbicidal rating, CYPSE ([4]; rate 0.0320 kg/ha): 9.0 | herbicidal rating, CYPSE ([4]; rate 0.1250 kg/ha): 9.0 | GLXMAW herbicidal rating ([5]; rate 0.0320 kg/ha): 5.0 | GLXMAW herbicidal rating ([5]; rate 0.0620 kg/ha): 7.5 | Preemergence herbicidal rating GLXMAW ([6]; Rate 0.0620 kg/ha): 9.0 | Preemergence herbicidal rating GLXMAW ([6]; Rate 0.1250 kg/ha): 9.0 | Preemergence herbicidal rating GLXMAW ([6]; Rate 0.2500 kg/ha): 9.0 | Preemergence herbicidal rating ORYSAT (ORYSAT (Rice, Tebonnet); Rate 0.0620 kg/ha): 8.5 | Preemergence herbicidal rating ORYSAT (ORYSAT (Rice, Tebonnet); Rate 0.1250 kg/ha): 9.0 | Preemergence herbicidal rating ORYSAT (ORYSAT (Rice, Tebonnet); Rate 0.2500 kg/ha): 9.0 | CASOB herbicidal rating ([7]; rate 0.0320 kg/ha): 2.0 | CASOB herbicidal rating ([7]; rate 0.0620 kg/ha): 6.0 | CHEAL herbicidal rating ([8]; rate 0.0320 kg/ha): 7.0 | CHEAL herbicidal rating ([8]; rate 0.0620 kg/ha): 8.0 | AMBEL herbicidal rating ([9]; rate 0.0320 kg/ha): 9.0 | AMBEL herbicidal rating ([9]; rate 0.0620 kg/ha): 9.0 | ABUTH herbicidal rating ([10]; rate 0.0320 kg/ha): 9.0 | ABUTH herbicidal rating ([10]; rate 0.0620 kg/ha): 9.0 | herbicidal rating, CYPIR (CYPIR (Cyperus iria); rate 0.0080 kg/ha): 3.0 | herbicidal rating, CYPIR (CYPIR (Cyperus iria); rate 0.0320 kg/ha): 8.0 | herbicidal rating, CYPIR (CYPIR (Cyperus iria); rate 0.1250 kg/ha): 9.0 | Preemergence herbicidal rating ZEAMX (ZEAMX (Corn, Field) [11]; Rate 0.0620 kg/ha): 8.0 | Preemergence herbicidal rating ZEAMX (ZEAMX (Corn, Field) [11]; Rate 0.1250 kg/ha): 8.5 | Preemergence herbicidal rating ZEAMX (ZEAMX (Corn, Field) [11]; Rate 0.2500 kg/ha): 9.0 | herbicidal rating, ECHORC ([12]; rate 0.0080 kg/ha): 8.0 | herbicidal rating, ECHORC ([12]; rate 0.0320 kg/ha): 9.0 | herbicidal rating, ECHORC ([12]; rate 0.1250 kg/ha): 9.0 | Preemergence herbicidal rating IPOHE ([13]; Rate 0.0620 kg/ha): 6.5 | Preemergence herbicidal rating IPOHE ([13]; Rate 0.1250 kg/ha): 9.0 | Preemergence herbicidal rating IPOHE ([13]; Rate 0.2500 kg/ha): 9.0 | GALAP herbicidal rating (GALAP (Galium aparine); rate 0.0320 kg/ha): 2.0 | GALAP herbicidal rating (GALAP (Galium aparine); rate 0.0620 kg/ha): 5.0 | Preemergence herbicidal rating CASOB ([14]; Rate 0.0620 kg/ha): 9.0 | Preemergence herbicidal rating CASOB ([14]; Rate 0.1250 kg/ha): 9.0 | Preemergence herbicidal rating CASOB ([14]; Rate 0.2500 kg/ha): 9.0 | Preemergence herbicidal rating CHEAL ([15]; Rate 0.0620 kg/ha): 9.0 | Preemergence herbicidal rating CHEAL ([15]; Rate 0.1250 kg/ha): 9.0 | Preemergence herbicidal rating CHEAL ([15]; Rate 0.2500 kg/ha): 9.0 | Preemergence herbicidal rating AMBEL ([16]; Rate 0.0620 kg/ha): 9.0 | Preemergence herbicidal rating AMBEL ([16]; Rate 0.1250 kg/ha): 9.0 | Preemergence herbicidal rating AMBEL ([16]; Rate 0.2500 kg/ha): 9.0 | ZEAMX herbicidal rating (ZEAMX (Corn, Field) [17]; rate 0.0320 kg/ha): 5.0 | ZEAMX herbicidal rating (ZEAMX (Corn, Field) [17]; rate 0.0620 kg/ha): 5.5 | ECHCG herbicidal rating ([18]; rate 0.0320 kg/ha): 3.0 | ECHCG herbicidal rating ([18]; rate 0.0620 kg/ha): 3.0
